Values quoted from earlier work, collected in paper PMC10615786 (Cell, 2023).

Tests used:
LRX3 = settings: modulates salt tolerance
LRX4 = settings: modulates salt tolerance
ROS level = settings: general statement, no data or reference printed

Compound | binding to LRX3 (LRX3) | binding to LRX4 (LRX4) | ROS levels in vivo (ROS level)
sRALF23: stigma-expressing RALF peptide (ATRRYISYGALRRNTIPCSRRGASYYNCRRGAQANPYSRGCSAITRCRRS; UniProt Q9LUS7 89-138, looked up) | bind to LRX3 and LRX4 | bind to LRX3 and LRX4 | 
c1ccc2c(c1)[I+]c1ccccc1-2 [DPI] |  |  | lower ROS levels in vivo
